Results as given in patent publication US7608612B2, “Radiosensitizer formulations and methods for use” (priority 2005, dated 2009).
“Also recorded” adds a separate entry of the source.

Key:
[1] = system: Chinese hamster ovary (CHO) cells; experiment: In vitro study of 4(5)-nitrohistidine as a radiosensitizer under hypoxic conditions; assay type: cell-based; conditions: 30 min hypoxic pre-incubation
protozoa = conditions: Brossi et al.; cited from earlier work
Lewis lung carcinoma [2] = experiment: In vivo growth retardation experiment 2 with Lewis lung carcinoma (comparison with misonidazole); design: species or system mice; conditions: for tumor growth course (in words): mice with Lewis lung carcinoma, radiosensitizer plus radiation
Excerpt: Another growth retardation study was done in mice implanted with Lewis lung carcinoma comparing 4(5)-nitrohistidine (NHis) plus radiation treatment to misonidazole plus radiation treatment.

[3] = system: Chinese hamster ovary (CHO) cells; experiment: In vitro study of 4(5)-nitrohistidine as a radiosensitizer, 300 cGy 9 MeV electron beam; assay type: cell-based
Procedure: FIG. 2A is an in vitro study of nitrohistidine on Chinese hamster ovary (CHO) cells. CHO cells were in use in an F12 medium with fetal calf serum. A 9 MeV electron beam was used to irradiate the Petri dishes, dose 300 cGy, and a concentration range of 1-4 mM nitrohistidine was employed.
FIG. 2B is an in vitro study of nitrohistidine compared to misonidazole on CHO cells.
An in vitro study using Chinese hamster ovary (CHO) cells was carried out using F12 medium with fetal calf serum for growth of the CHO cells. A 9 MeV electron beam, generated by a Varian Clinac 1800 instrument, was used to irradiate the Petri dishes, at a dose of 300 cGy, and a concentration of 1 to 4 mM 4(5)-nitrohistidine was added alone, or in combination with the radiation dose.

Lewis lung carcinoma [4] = experiment: In vivo growth retardation experiment 1 with Lewis lung carcinoma; design: species or system mice (C-57)
Procedure: FIG. 4 is an in vivo Growth Retardation Study of Lewis lung carcinoma in […]. Groups of 5-6 mice were subcutaneously implanted with Lewis Lung Carcinoma cells and permitted to grow a small measurable tumor in the hind leg. Radiosensitizers were given by i.p. injection. In some comparative experiments, nitrohistidine was employed at half the concentration of misonidazole. The measurable tumors were treated with a single 500 cGy fraction of 9 MeV electrons.
FIG. 5 is a tumor size assessment plot from the Growth Retardation Study of FIG. 4, showing tumor size as a function of time (in days).
Groups of 5-6 mice (C-57) were subcutaneously implanted in the hind leg with Lewis lung carcinoma cells and the cells were permitted to grow until a measurable tumor was evident. Radiosensitizers were administered using i.p. injection at 2 mM concentration, and then treated with a single 500 cGy dose administered with a 9 MeV electron beam and tumor size measured daily for a period of 9 days. Control mice were implanted with tumor cells and left untreated.

[5] = system: Chinese hamster ovary (CHO) cells; experiment: In vitro synergism of buthionine sulfoximine and 4(5)-nitrohistidine as radiosensitizers; assay type: cell-based; conditions: compounds at 2 mM, radiation 0 to 10 Gy
Procedure: Buthionine sulfoximine is an agent known to deplete the levels of endogenous detoxifier and radioprotector glutathione. […] In several experiments, as here, the enhancement ration was greater than two with both agents present. CHO cells were used in the experiments and trhe compounds were present at 2 mM concentration as indicated.
Chinese hamster ovary cells were grown on F12 medium supplemented with fetal calf serum. Cells were treated with dosages of radiation from 0 to 10 Gy, using a 9 MeV electron beam as above, either alone or in the presence of nitrohistidine, buthionine sulfoximine, or 4(5)-nitrohistidine plus buthionine sulfoximine together. When present, the buthionine sulfoximine and 4(5)-nitrohistidine were added at 2 mM concentration. […] S. fractions remaining for the combined dual drug/radiation treatment indicate an initial lag time, before continued depletion of cells surviving, down to less than 0.01 SF at 10 Gy in the presence of both NHis and BSO. The enhancement ratio calculated for the combined treatment was greater than two over that of any other treatment combination.

tumors = conditions: number of trials out of all trials; cited from earlier work
[6] = first group of mice, NHis+XRT, day 9
[7] = second group of mice, NHis+XRT, day 9

SMILES | S. Fraction at 10 Gy ([1]; 2 mM plus radiation) | calculated enhancement ratio ([1]; 2 mM, at the 0.1 level SF value (90% killing), versus radiation alone) | efficacy as an anti-protozoal agent relative to known anti-protozoal nitroimidazole agents (protozoa) | tumor growth course (in words) (Lewis lung carcinoma [2]) | in vivo radiosensitizer potency compared with misonidazole (Lewis lung carcinoma [2]; plus radiation, in vivo) | toxicity of nitrohistidine alone (S. fraction, surviving fraction of cells) ([3]; 1-4 mM nitrohistidine, no radiation) | effective concentration range for radiosensitization ([3]; 300 cGy) | S. fraction (surviving fraction) in the presence of ionizing radiation (Nitro+XRT) ([3]; 300 cGy, all four concentrations 1 to 4 mM) | radiosensitizing effectiveness of 2 mM compared with 5 mM ([3]; additional studies, data not shown) | growth retardation compared to the control group (Lewis lung carcinoma [4]; [6]) | growth retardation compared to the group treated with radiation alone (Lewis lung carcinoma [4]; [6]) | tumor size at day 9 (Lewis lung carcinoma [4]; first group of mice, NHis+XRT, i.p., single 500 cGy dose) | tumor size at day 9 (Lewis lung carcinoma [4]; second group of mice, NHis alone without radiation (same value given for control)) | tumor size at day 9 (Lewis lung carcinoma [4]; second group of mice, NHis+XRT) | growth retardation compared to the XRT treatment alone (Lewis lung carcinoma [4]; [7]) | growth retardation compared to the control or NHis alone (Lewis lung carcinoma [4]; [7]) | radiosensitization / synergism (in words) [5] | clinical trials that suggested any clinical benefit as a radiosensitizer (tumors)
NC(Cc1nc[nH]c1[N+](=O)[O-])C(=O)O (stereo not shown) [4(5)-nitrohistidine] | about 0.006 | 1.38 | zero | plateau in tumor growth after 9-10 days | more potent and effective radiosensitizer than misonidazole | did not appear to possess toxicity by itself; also recorded: did not exhibit any toxicity | 1 to 4 mM | under 0.6 | nearly as effective as 5 mM | about 22% | about 10% | about 18 mm | about 21 mm | about 15 mm | ~35% | about 29% | – | –
CCCCS(=N)(=O)CCC(N)C(=O)O (stereo not shown) [Buthionine sulfoximine, buthionine sulfoximine] | – | – | – | – | – | – | – | – | – | – | – | – | – | – | – | – | some radiosensitization properties of its own | –
COCC(O)Cn1ccnc1[N+](=O)[O-] (stereo not shown) [misonidazole, reference compound] | – | – | – | no ability to retard tumor growth | – | – | – | – | – | – | – | – | – | – | – | – | – | 5 of 38
